From PubChem BioAssay (NCI)
Where “and” joins values, the source holds several entries; their conditions need not be identical. Equal values may be shown once.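 Test compounds were applied to cells in 96-well plates for 48 hours at 5 doses. The concentration for 50% growth inhibition is given as GI50. The concentration for full growth arrest is given as TGI.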

Legend:
Experiment in all cases: NCI anticancer screen, dose series, 48 h
SK-MEL-28 melanoma = tested on: SK-MEL-28 melanoma
MDA-MB-435 = tested on: MDA-MB-435
OVCAR-5 ovarian = tested on: OVCAR-5 ovarian
ACHN renal = tested on: ACHN renal
CAKI-1 renal = tested on: CAKI-1 renal
LOX IMVI melanoma = tested on: LOX IMVI melanoma
HOP-62 NSCLC = tested on: HOP-62 NSCLC
SNB-19 CNS = tested on: SNB-19 CNS
BT-549 breast = tested on: BT-549 breast
SNB-75 CNS = tested on: SNB-75 CNS

Structure (SMILES)	TGI (SK-MEL-28 melanoma)	TGI (MDA-MB-435) [µM]	TGI (OVCAR-5 ovarian)	TGI (ACHN renal)	TGI (CAKI-1 renal)	TGI (LOX IMVI melanoma) [µM]	TGI (HOP-62 NSCLC)	TGI (SNB-19 CNS)	TGI (BT-549 breast)	TGI (SNB-75 CNS)	GI50 (BT-549 breast)
CC1(C)OC2C(CO)OC(n3ccc(N)nc3=O)C2O1 (stereo not drawn)	> 100 µM	> 100	> 100 µM	> 100 µM	> 100 µM	> 100	> 100 µM	> 100 µM	> 100 µM		
Cc1cc2c(cc1C)[n+](=O)c(C(=O)CC(=O)C(=O)Nc1ccccc1C(C)C)c(C)n2[O-]	> 100 µM		> 100 µM	> 100 µM	> 100 µM	> 100	> 100 µM	> 100 µM		> 100 µM	
NC1=NC2=C(CCCC2)C(c2cccs2)S1 (stereo not drawn)	> 100 µM		> 100 µM	> 100 µM	> 100 µM		> 100 µM	> 100 µM		> 100 µM	
C=C1C(=O)OC2CC1C(OC(C)=O)C/C(C)=C/CC/C(C)=C\CCC2(C)O (stereo not drawn)	11.2 µM and 15.7 µM	18.6	46.3 µM and 30 µM	14.9 µM and 7.78 µM	14.2 µM and 9.91 µM		35.4 µM and 31.7 µM	40.1 µM and 32 µM	15.5 µM and 5.35 µM	29.7 µM and 24.3 µM	4.31 µM and 2.05 µM
CN(C)c1ccc(/C=c2\sc3nnc(-c4cccnc4)n3c2=O)cc1	> 100 µM		> 100 µM	> 100 µM	> 100 µM	> 100	> 100 µM	> 100 µM		> 100 µM	
OCCCc1cnco1	> 100 µM		> 100 µM	> 100 µM	> 100 µM	> 100	> 100 µM	> 100 µM		> 100 µM	
Cn1c2cc([N+](=O)[O-])ccc2c(=O)c2c(O)cc3c(c21)C=CC(C)(C)O3	> 100 µM		80.4 µM	> 100 µM	> 100 µM	> 100		73 µM		25.7 µM	
CC(=O)CC(=O)NC=O	> 100 µM		> 100 µM	> 100 µM	> 100 µM		> 100 µM	> 100 µM		> 100 µM	
O=C(N/C=C/C=C/Sc1ccccc1)OCc1ccccc1	34.3 µM		33.1 µM	68.9 µM	37.2 µM	32	49.2 µM	> 100 µM		42.4 µM	
CS(=N)(=O)CCC(N)P(=O)(O)O (stereo not drawn)	> 100 µM	> 100	> 100 µM	> 100 µM	> 100 µM	> 100	> 100 µM	> 100 µM	> 100 µM		
C=C1C(=O)c2cc3c(cc2C(c2cc(OC)c(OC)c(OC)c2)[C@@H]1C(=O)O)OCO3 (stereo partly drawn)	> 100 µM			> 100 µM	> 100 µM	> 100				61.1 µM	
COC1=CC(=O)OC(/C=C(C)/C=C/C2=C(C)CCCC2(C)C)C1 (stereo not drawn)	> 100 µM		> 100 µM	> 100 µM	> 100 µM		> 100 µM	> 100 µM		> 100 µM	
COC(=O)c1nc(C(=O)OC)c2c([nH]c3ccccc32)c1C(=O)OC	> 100 µM		> 100 µM			> 100	> 100 µM			> 100 µM	
